Test results reported in PMC8121805, “Discovery of first-in-class inhibitors of ASH1L histone methyltransferase with anti-leukemic activity” (Nature Communications, 2021).
Values joined by “and” are separate entries in the source; they are usually repeats but may differ in a detail not shown here. Identical values can stand only once.

Tests used:
Format in all cases: cell-based, human
[1] = test system: MLL leukemia cells (MV4;11, MOLM13, KOPN8, RS4;11); experiment: MTT cell viability assay, MLL leukemia cells as a group; conditions: Homo sapiens, MLL leukemia cells
Experimental: Human leukemia cells K562, MV4;11 and RS4;11 (purchased from ATCC) and KOPN8, MOLM13 (purchased from DSMZ) were cultured in RPMI 1640 (Invitrogen) supplemented with 10% heat inactivated (h.i.) FBS and 1% penicillin/streptomycin (Invitrogen). SET2 cells (purchased from DSMZ) were cultured in RPMI 1640 supplemented with 20% h.i. FBS and 1% penicillin/streptomycin. Cells were plated at 1 × 10^5 to 2 × 10^5 cells/mL depending on cell line and treated with 0.25% DMSO or varying concentrations of compounds and incubated at 37 °C, 5% CO2 incubator for 7 days. Media was changed on day 3 or 4 and compounds were resupplied. […] Cell suspensions (100 μL) were transferred to the 96-well plates for each sample in quadruplicate at the time of media change. At day 7, 10 µL of MTT reagent (M6494, Molecular Probes™) was added to each well of the 96 well plate and incubated at 37 °C for 4 h. The formazan was then solubilized by adding 100 µL acidified 10% SDS solution and incubated at 37 °C overnight. Plates were read for absorbance at 570 nm using a PHERAstar BMG microplate reader. The experiments were performed two times in quadruplicates with calculation of mean and SD for each condition. Data were analyzed in Prism 8.0.0 to obtain GI50 values.
Supplementary Figure 4. Cell viability assay for AS-6 in MLL leukemia cell lines. Titration curves from the MTT cell viability assay performed after 7 days of treatment of human MLL1- […]
replicates. Representative graphs are shown from two independent MTT experiments performed […]
(§1) Supplementary Figure 7. […] (a)
Titration curves from the MTT cell viability assay performed after 4, 7, and 11 (or 10) days of […]
Titration curves from the MTT cell viability assay performed after 7 days of treatment of KOPN8 , MOLM13 and MV4;11 cell lines harboring MLL1 translocation (MLL1-r) or K562 cell line (non- […]
Representative graphs are shown from two independent MTT experiments performed for each cell line. GI50 values correspond to […]

MV4;11 cells = experiment: MTT cell viability assay; conditions: MTT, 7 days
Experimental: (§2) FBS and 1% penicillin/streptomycin. […] Media was changed on day 3 or 4 and compounds were resupplied. […] Cell suspensions (100 μL) were transferred to the 96-well plates for each sample in quadruplicate at the time of media change. At day 7, 10 µL of MTT reagent (M6494, Molecular Probes™) was added to each well of the 96 well plate and incubated at 37 °C for 4 h. The formazan was then solubilized by adding 100 µL acidified 10% SDS solution and incubated at 37 °C overnight. Plates were read for absorbance at 570 nm using a PHERAstar BMG microplate reader. The experiments were performed two times in quadruplicates with calculation of mean and SD for each condition. Data were analyzed in Prism 8.0.0 to obtain GI50 values.
as §1
(§3) Titration curves from the MTT cell viability assay performed after 4, 7, and 11 (or 10) days of
(§4) Titration curves from the MTT cell viability assay performed after 7 days of treatment of KOPN8 ,
(§5) MOLM13 and MV4;11 cell lines harboring MLL1 translocation (MLL1-r) or K562 cell line (non-
(§6) Representative graphs are shown
(§7) from two independent MTT experiments performed for each cell line.

MOLM13 cells = experiment: MTT cell viability assay; conditions: MTT, 7 days
Experimental: as §2, §1, §3, §4, §5, §6, §7

## CS(=O)(=O)N1CCC(n2cc(-c3cccc(C(N)=S)c3)c3ccc(CNC(=O)Cc4c[nH]cn4)cc32)CC1 [AS-6]
[1]
  GI50: ~50 µM
MV4;11 cells; log[compound] -4.30103
  % activity MV4;11: 54.5576% and 57.6227% and 55.8763% and 56.7674%
MV4;11 cells; log[compound] -4.60206
  % activity MV4;11: 56.8386% and 61.0443% and 58.6207% and 61.2225%
MV4;11 cells; log[compound] -4.90309
  % activity MV4;11: 61.2938% and 67.4597% and 60.9374%
MV4;11 cells; log[compound] -5.20412
  % activity MV4;11: 76.1205% and 82.5002% and 82.4289% and 79.6846%
MV4;11 cells; log[compound] -5.50515
  % activity MV4;11: 94.9746% and 100.606% and 92.9787% and 93.7272%
MV4;11 cells; log[compound] -5.80618
  % activity MV4;11: 95.5805% and 97.9685% and 95.0102% and 103.208%
MV4;11 cells; log[compound] -6.10721
  % activity MV4;11: 95.9013% and 98.3962% and 101.354% and 104.348%
MOLM13 cells; log[compound] -4.30103
  % activity MOLM13: 44.6695% and 48.1072% and 45.3243%
MOLM13 cells; log[compound] -4.60206
  % activity MOLM13: 58.0929% and 58.2566% and 58.584% and 59.3207%
MOLM13 cells; log[compound] -4.90309
  % activity MOLM13: 66.769% and 64.8864% and 66.8508%
MOLM13 cells; log[compound] -5.20412
  % activity MOLM13: 75.8543% and 77.8187% and 79.7831% and 79.8649%
MOLM13 cells; log[compound] -5.50515
  % activity MOLM13: 91.8969% and 80.7653% and 85.3489% and 88.2955%
MOLM13 cells; log[compound] -5.80618
  % activity MOLM13: 93.7794% and 90.9965% and 88.7047% and 81.3382%
MOLM13 cells; log[compound] -6.10721
  % activity MOLM13: 102.456% and 101.555% and 98.1993% and 97.7901%
